# Reference: ChEMBL document CHEMBL1134116, “Ethambutol analogues as potential antimycobacterial agents” (Bioorg Med Chem Lett, 2001)
# Activity calls are given as the source filed them. The calls are words filed in the database; no cut-off is given here.
# Test system: Mycolicibacterium smegmatis
# Assay: Antimycobacterial activity was evaluated against Mycobacterium smegmatis; Inactive
# Type: functional, organism-based
row,Compound,Activity
1,OCCNCCNCCO,inactive
2,O=C(O)CNCCNCC(=O)O,inactive
3,O=C(O)CN(CCN(CC(=O)O)CC(=O)O)CC(=O)O,inactive
4,COC(=O)[C@H](CO)NCCN[C@@H](CO)C(=O)OC,inactive

# Test system: Mycolicibacterium smegmatis
# Assay: Antimycobacterial activity was evaluated against Mycobacterium smegmatis; Active
# Type: functional, organism-based
row,Compound,Activity
1,CC[C@@H](CO)NCCN1CCC[C@H]1CO,Active
2,OCCNCCNCCO,Active
3,OC[C@@H]1CCCN1CCN1CCC[C@H]1CO,Active
4,CC[C@H](CO)NCCN[C@@H](CC)CO,Active
5,CC(C)C[C@@H](CO)NCCN[C@@H](CO)CC(C)C,Active
6,CC[C@@H](CO)NCCN[C@@H](C)CO,Active
7,CC[C@@H](CO)NCCN[C@H](C)CO,Active
8,OC[C@H]1N[C@@H](CSc2ccccc2)C(O)[C@H]1O (stereo not given in full),Active
9,CC[C@@H](CO)NCCN[C@@H](CC)CO,Active
10,OC[C@H](Cc1ccccc1)NCCN[C@@H](CO)Cc1ccccc1,Active
11,CC(C)[C@@H](CO)NCCN[C@H](CO)C(C)C,Active
